# In patent publication US20140121236A1, “Compositions and Methods for Treating Myotonic Dystrophy Type 1” (UNIVERSITY OF SOUTHERN CALIFORNIA, priority 2012, published 2014):
# How the values were obtained:
# Format in all cases: cell-based, human
# [1] = test system: CUG-RNA foci in DM1 myoblasts; test: FISH analysis of nuclear CUG-RNA foci in DM1 myoblasts; details: 4 days, FISH
# Procedure: DM1 myoblasts were then treated with 10 μM of either RCN-001 or the vehicle (DMSO) for 4 days and then examined by FISH using a Cy3 (CAG)10 probe.
# Normal myoblasts were purchased from Lonza, Inc. DM1 myoblasts were a gift from Dr. Charles Thornton. Normal and DM1 myoblasts were maintained in SkGM Medium (Lonza, Inc.) containing 10% Fetal Bovine Serum and 1% Penicillin-Streptomycin, 5% CO2 at 37° C. Human Embryonic Kidney 293 Cells (293HEK) were maintained in Dulbecco's Modification of Eagle's Medium (DMEM) from Cellgro supplemented with 10% Fetal Bovine Serum and 1% Penicillin-Streptomycin, 5% CO2 at 37° C.
# CUG-RNA foci were detected by performing FISH on untreated DM1 myoblasts and DM1 myoblasts following treatment. For FISH analysis, DM1 myoblasts were plated on a 24-well clear bottom polystyrene plate with circular glass coverslips followed by treatment. Prior to FISH analysis, cells were fixed using 4% paraformaldehyde in 1×PBS for 20 min at room temperature. FISH analysis was performed using a Cy3 conjugated (CAG)10 oligonucleotide probe (Integrated DNA Technologies, Inc.) as described by Taneja et al, 1995 and Dansithong et al, 2005. CUG-RNA foci were observed as a red signal using fluorescence microscopy. Immunofluorescence was performed as described by Dansithong et al, 2008. Endogenous SHARP was detected using SHARP polyclonal antibodies from Bethyl at a dilution of 1:1000. The secondary antibodies conjugated with FITC (Invitrogen) were used at a 1:2000 dilution. Chloride channel 1 (Clcn1 a.k.a. CIC-1) was detected using CIC-1 polyclonal antibodies from Santa Cruz. The secondary antibodies conjugated with Alexa Flour 488 (Invitrogen) were used at a 1:2000 dilution. FISH analysis in mouse muscle section was carried out as described in Mancodi et al, 2000 (9).
# DM1 myoblasts [2] = test: Toxicity by shape and size of the nuclei of DM1 myoblasts; parameters: key: −: Nontoxic; +: 10% alterations in nuclei shape and size; ++: 20-30% alterations in nuclei shape and size; +++: 40-50% alterations in nuclei shape and size; ++++: 60% alterations in nuclei shape and size; +++++: very sick, almost no surviving cells; details: 4 days
# DM1 myoblasts [3] = test: Viability of DM1 myoblasts by counting surviving cells; details: 4 days, surviving cells vs vehicle control
smiles,measurement,setting,value
"CCc1cc2c(CN3CCN(S(=O)(=O)Cc4ccccc4)CC3)cc(=O)oc2cc1O [RCN-020, 4-((4-(benzylsulfonyl)piperazin-1-yl)methyl)-6-ethyl-7-hydroxy-2H-chromen-2-one]",# of Foci (percentage) 0-1: Percentage of cells with no or 1 nuclear foci,"[1]; Table 3, 10 μM",15 percentage
same,# of Foci (percentage) >2: Percentage of cells with 2 or greater nuclear foci,"[1]; Table 3, 10 μM",85 percentage
same,# of Foci (percentage) 0-1: Percentage of cells with no or 1 nuclear foci,"[1]; Table 4, 10 μM",15 percentage
same,# of Foci (percentage) >2: Percentage of cells with 2 or greater nuclear foci,"[1]; Table 4, 10 μM",85 percentage
same,Toxicity: Toxic,"DM1 myoblasts [2]; Table 3, 10 μM",−
same,Toxicity: Toxic,"DM1 myoblasts [2]; Table 4, 10 μM",−
same,Toxicity: Viable,"DM1 myoblasts [3]; Table 3, 10 μM",+++++ (90-100% cell survival)
same,Toxicity: Viable,"DM1 myoblasts [3]; Table 4, 10 μM",+++++ (90-100% cell survival)
CCCCCCc1cc2cc(-c3csc(-c4nc(-c5cc6cc(CCCCCC)c(O)cc6oc5=O)cs4)n3)c(=O)oc2cc1O [RCN-012],# of Foci (percentage) 0-1: Percentage of cells with no or 1 nuclear foci,"[1]; Table 4, 10 μM",14 percentage
same,# of Foci (percentage) >2: Percentage of cells with 2 or greater nuclear foci,"[1]; Table 4, 10 μM",86 percentage
same,Toxicity: Toxic,"DM1 myoblasts [2]; Table 4, 10 μM",−
same,Toxicity: Viable,"DM1 myoblasts [3]; Table 4, 10 μM",+++++ (90-100% cell survival)
"CCN(CC)c1ccc2cc(-c3nnc(-c4cc5ccccc5cc4O)o3)c(=O)oc2c1 [RCN-009, 7-(diethylamino)-3-(5-(3-hydroxynaphthalen-2-yl)-1,3,4-oxadiazol-2-yl)-2H-chromen-2-one]",# of Foci (percentage) 0-1: Percentage of cells with no or 1 nuclear foci,"[1]; Table 3, 10 μM",11 percentage
same,# of Foci (percentage) >2: Percentage of cells with 2 or greater nuclear foci,"[1]; Table 3, 10 μM",89 percentage
same,Toxicity: Toxic,"DM1 myoblasts [2]; Table 3, 10 μM",+++ (40-50% alterations in nuclei shape and size)
same,Toxicity: Viable,"DM1 myoblasts [3]; Table 3, 10 μM",++ (30-40% cell survival)
"CCCCCCc1cc2cc(C(=O)Nc3cccc(Br)c3)c(=O)oc2cc1O [RCN-018, N-(3-bromophenyl)-6-hexyl-7-hydroxy-2-oxo-2H-chromene-3-carboxamide]",Toxicity: Toxic,"DM1 myoblasts [2]; Table 2, 10 μM",+++++
same,Toxicity: Viable,"DM1 myoblasts [3]; Table 2, 10 μM",− (less than 10% cell survival)
"CCCCCCc1cc2cc(-c3cn4ccc(C)cc4n3)c(=O)oc2cc1O [RCN-013, 6-hexyl-7-hydroxy-3-(7-methylimidazo[1,2-a]pyridine-2-yl)-2H-chromen-2-one]",# of Foci (percentage) 0-1: Percentage of cells with no or 1 nuclear foci,"[1]; Table 4, 10 μM",13 percentage
same,# of Foci (percentage) >2: Percentage of cells with 2 or greater nuclear foci,"[1]; Table 4, 10 μM",87 percentage
same,Toxicity: Toxic,"DM1 myoblasts [2]; Table 4, 10 μM",+++ (40-50% alterations in nuclei shape and size)
same,Toxicity: Viable,"DM1 myoblasts [3]; Table 4, 10 μM",+++ (50-60% cell survival)
"CCCCCCc1cc2cc(C(=O)Nc3ccc(Br)cc3)c(=O)oc2cc1O [RCN-015, N-(4-bromophenyl)-6-hexyl-7-hydroxy-2-oxo-2H-chromene-3-carboxamide]",# of Foci (percentage) 0-1: Percentage of cells with no or 1 nuclear foci,"[1]; Table 2, 10 μM",29 percentage
same,# of Foci (percentage) >2: Percentage of cells with 2 or greater nuclear foci,"[1]; Table 2, 10 μM",71 percentage
same,Toxicity: Toxic,"DM1 myoblasts [2]; Table 2, 10 μM",+++ (40-50% alterations in nuclei shape and size)
same,Toxicity: Viable,"DM1 myoblasts [3]; Table 2, 10 μM",+++ (50-60% cell survival)
"CCCCCCc1cc2cc(-c3cn4ccccc4n3)c(=O)oc2cc1O [RCN-011, 6-hexyl-7-hydroxy-3-(imidazo[1,2-a]pyridine-2-yl)-2H-chromen-2-one]",# of Foci (percentage) 0-1: Percentage of cells with no or 1 nuclear foci,"[1]; Table 4, 10 μM",17 percentage
same,# of Foci (percentage) >2: Percentage of cells with 2 or greater nuclear foci,"[1]; Table 4, 10 μM",83 percentage
same,Toxicity: Toxic,"DM1 myoblasts [2]; Table 4, 10 μM",−
same,Toxicity: Viable,"DM1 myoblasts [3]; Table 4, 10 μM",+++++ (90-100% cell survival)
CCCCCCc1cc2cc(-c3nnc(-c4ccc([N+](=O)[O-])cc4)o3)c(=O)oc2cc1O [RCN--005],# of Foci (percentage) 0-1: Percentage of cells with no or 1 nuclear foci,"[1]; Table 1, 10 μM",14 percentage
same,# of Foci (percentage) >2: Percentage of cells with 2 or greater nuclear foci,"[1]; Table 1, 10 μM",86 percentage
same,Toxicity: Toxic,"DM1 myoblasts [2]; Table 1, 10 μM",++++ (60% alterations in nuclei shape and size)
same,Toxicity: Viable,"DM1 myoblasts [3]; Table 1, 10 μM",+ (10-20% cell survival)
"CCCCCCc1cc2cc(C(N)=O)/c(=N/c3ccccc3OC)oc2cc1O [RCN-019, (Z)-6-hexyl-7-hydroxy-2-((2-methoxyphenyl)imino)-2H-chromene-3-carboxamide]",# of Foci (percentage) 0-1: Percentage of cells with no or 1 nuclear foci,"[1]; Table 2, 10 μM",14 percentage
same,# of Foci (percentage) >2: Percentage of cells with 2 or greater nuclear foci,"[1]; Table 2, 10 μM",86 percentage
same,Toxicity: Toxic,"DM1 myoblasts [2]; Table 2, 10 μM",++ (20-30% alterations in nuclei shape and size)
same,Toxicity: Viable,"DM1 myoblasts [3]; Table 2, 10 μM",+++ (50-60% cell survival)
"CCCCCCc1cc2cc(C(=O)Nc3ccc(Cl)c(Cl)c3)c(=O)oc2cc1O [RCN-017, N-(3,4-dichlorophenyl)-6-hexyl-7-hydroxy-2-oxo-2H-chromene-3-carboxamide]",Toxicity: Toxic,"DM1 myoblasts [2]; Table 2, 10 μM",+++++
same,Toxicity: Viable,"DM1 myoblasts [3]; Table 2, 10 μM",− (less than 10% cell survival)
"CCCCCCc1cc2cc(C(=O)Nc3cccc(Cl)c3Cl)c(=N)oc2cc1O [RCN-016, N-(2,3-dichlorophenyl)-6-hexyl-7-hydroxy-2-imino-2H-chromene-3-carboxamide]",# of Foci (percentage) 0-1: Percentage of cells with no or 1 nuclear foci,"[1]; Table 2, 10 μM",12 percentage
same,# of Foci (percentage) >2: Percentage of cells with 2 or greater nuclear foci,"[1]; Table 2, 10 μM",88 percentage
same,Toxicity: Toxic,"DM1 myoblasts [2]; Table 2, 10 μM",++ (20-30% alterations in nuclei shape and size)
same,Toxicity: Viable,"DM1 myoblasts [3]; Table 2, 10 μM",+++ (50-60% cell survival)
"CCN(CC)c1ccc2cc(-c3nnc(-c4ccc(Cl)cc4)o3)c(=O)oc2c1 [RCN-007, 3-(5-(4-chlorophenyl)-1,3,4-oxadiazol-2-yl)-7-(diethylamino)-2H-chromen-2-one]",# of Foci (percentage) 0-1: Percentage of cells with no or 1 nuclear foci,"[1]; Table 1, 10 μM",17 percentage
same,# of Foci (percentage) >2: Percentage of cells with 2 or greater nuclear foci,"[1]; Table 1, 10 μM",83 percentage
same,Toxicity: Toxic,"DM1 myoblasts [2]; Table 1, 10 μM",+++ (40-50% alterations in nuclei shape and size)
same,Toxicity: Viable,"DM1 myoblasts [3]; Table 1, 10 μM",+++ (50-60% cell survival)
"CCCCCCc1cc2cc(C(=O)Nc3cccc(OC)c3)c(=O)oc2cc1O [RCN-014, 6-hexyl-7-hydroxy-N-(3-methoxyphenyl)-2-oxo-2H-chromene-3-carboxamide]",# of Foci (percentage) 0-1: Percentage of cells with no or 1 nuclear foci,"[1]; Table 1, 10 μM",24 percentage
same,# of Foci (percentage) >2: Percentage of cells with 2 or greater nuclear foci,"[1]; Table 1, 10 μM",76 percentage
same,# of Foci (percentage) 0-1: Percentage of cells with no or 1 nuclear foci,"[1]; Table 2, 10 μM",24 percentage
same,# of Foci (percentage) >2: Percentage of cells with 2 or greater nuclear foci,"[1]; Table 2, 10 μM",76 percentage
same,Toxicity: Toxic,"DM1 myoblasts [2]; Table 1, 10 μM",+ (10% alterations in nuclei shape and size)
same,Toxicity: Toxic,"DM1 myoblasts [2]; Table 2, 10 μM",+ (10% alterations in nuclei shape and size)
same,Toxicity: Viable,"DM1 myoblasts [3]; Table 1, 10 μM",++++ (70-80% cell survival)
same,Toxicity: Viable,"DM1 myoblasts [3]; Table 2, 10 μM",++++ (70-80% cell survival)
"CCCCCCc1cc2cc(-c3nnc(-c4cccc(F)c4)o3)c(=O)oc2cc1O [RCN-004, 3-(5-(3-fluorophenyl)-1,3,4-oxadiazol-2-yl)-6-hexyl-7-hydroxy-2H-chromen-2-one]",# of Foci (percentage) 0-1: Percentage of cells with no or 1 nuclear foci,"[1]; Table 1, 10 μM",29 percentage
same,# of Foci (percentage) >2: Percentage of cells with 2 or greater nuclear foci,"[1]; Table 1, 10 μM",71 percentage
same,Toxicity: Toxic,"DM1 myoblasts [2]; Table 1, 10 μM",+++ (40-50% alterations in nuclei shape and size)
same,Toxicity: Viable,"DM1 myoblasts [3]; Table 1, 10 μM",++ (30-40% cell survival)
"O=c1oc2ccccc2cc1-c1nnc(-c2cccc(Br)c2)o1 [RCN-008, 3-(5-(3-bromophenyl)-1,3,4-oxadiazol-2-yl)-2H-chromen-2-one]",# of Foci (percentage) 0-1: Percentage of cells with no or 1 nuclear foci,"[1]; Table 3, 10 μM",27 percentage
same,# of Foci (percentage) >2: Percentage of cells with 2 or greater nuclear foci,"[1]; Table 3, 10 μM",23 percentage
same,Toxicity: Toxic,"DM1 myoblasts [2]; Table 3, 10 μM",+++ (40-50% alterations in nuclei shape and size)
same,Toxicity: Viable,"DM1 myoblasts [3]; Table 3, 10 μM",+++ (50-60% cell survival)
